US20260240869A1, “ANTIPSEUDOMONAL FUSIDIC ACID COMPOUNDS” (priority 2022, published 2026)
Values after ≈ are worked out from the molar mass of the structure shown. Where two headings read alike, the source gives them in different places.

Key:
WT EC = details: retrospective literature analysis (Table 6); cited from earlier work
PA efflux KO = details: retrospective literature analysis (Table 6); cited from earlier work
tolC EC = details: retrospective literature analysis (Table 6); cited from earlier work
WT PA = details: retrospective literature analysis (Table 6); cited from earlier work
E. coli MG1655 = experiment: MIC, E. coli MG1655; assay type: cell-based; details: Escherichia coli, MG1655; Table 9; read-out: MIC E. coli MG1655
Method: (§1) Antimicrobial Susceptibility Tests. Susceptibility testing was performed in biological triplicate, using the microdilution broth method as outlined by the Clinical and Laboratory Standards Institute. Bacteria were cultured with cation-adjusted Meuller-Hinton broth (Sigma-Aldrich; catalogue number: 90922) or Luria-Bertani (LB) broth (Lennox) in round-bottom 96-well plates (Corning; catalogue number: 3788).

S. aureus ATCC 29213 = experiment: MIC, S. aureus ATCC 29213; assay type: cell-based; details: Staphylococcus aureus, ATCC29213; Table 9; read-out: MIC S. aureus ATCC 29213
Method: as §1

P. aeruginosa PAO1 [1] = experiment: MIC, CLSI broth microdilution, P. aeruginosa PAO1; assay type: cell-based, Pseudomonas aeruginosa; details: for MIC: Pseudomonas aeruginosa
Method: as §1

P. aeruginosa PA14 = experiment: MIC, P. aeruginosa PA14; assay type: cell-based, Pseudomonas aeruginosa; details: for MIC: Pseudomonas aeruginosa
Method: as §1

P. aeruginosa PA1280 = experiment: MIC, P. aeruginosa PA1280; assay type: cell-based, Pseudomonas aeruginosa; details: for MIC: Pseudomonas aeruginosa
Method: as §1

P. aeruginosa PAO1 [2] = experiment: LC-MS/MS whole-cell accumulation assay, P. aeruginosa PAO1; assay type: cell-based, Pseudomonas aeruginosa
Method: (§2) Accumulation Assay. The accumulation assay was performed in triplicate in batches of ten samples, with each batch containing tetracycline or ciprofloxacin as a positive control. P. aeruginosa PAO1, PAO1 A6, PA14, PA14 A40, and PA1280, and E. coli MG1655 were used in these experiments. For each replicate, 2.5 mL (E. coli) or 5 mL (P. aeruginosa) of an overnight culture was diluted into 250 mL of fresh Luria-Bertani broth (Lennox) or Tryptic Soy Broth (TSB) and grown at 37° C. with shaking to an optical density (OD600) of 0.55-0.60. The bacteria were pelleted at 3220 r.c.f. for 10 min at 4° C., and the supernatant was discarded. The pellets were resuspended in 40 mL of phosphate buffered saline (PBS) and pelleted as before, and the supernatant was discarded. The pellets were resuspended in 8.8 mL of fresh PBS and aliquoted into ten, 1.5 mL Eppendorf tubes (875 μL each). The number of colony-forming units (CFUs) was determined by a calibration curve. The samples were equilibrated at 37° C. with shaking for 5 min; compound was added (final concentration=50 μM), and then the samples were incubated at 37° C. with shaking for either 10 min. These time points were short enough to minimize metabolic and growth changes (no changes in OD600 or CFU count observed). After incubation, 800 μL of the cultures was carefully layered on 700 μL of silicone oil (9:1 AR20/Sigma High Temperature, cooled to −78° C.). Bacteria were pelleted through the oil by centrifuging at 13 000 r.c.f. for 2 min at room temperature (with the supernatant remaining above the oil); the supernatant and oil were then removed by pipetting. To lyse the samples, each pellet was dissolved in […] of water, and then, they were subjected to three (E. coli) or four (P. aeruginosa) freeze-thaw cycles of 3 min in liquid nitrogen followed by 3 min in a water bath at 65° C. P. aeruginosa samples were then treated with 50 µM DNase and RNase and incubated at 37° C. for 15 minutes. The lysates were pelleted at 13 000 r.c.f. for 2 min at room temperature, and the supernatant was collected ([…]). The debris was resuspended in 100 μL of methanol and pelleted as before. The supernatants were removed and combined with the previous supernatants collected. Finally, the remaining debris was removed by centrifuging at 20 000 r.c.f. for 10 min at room temperature. Supernatants were analyzed by LC-MS/MS.
(§3) Samples were analyzed with the 5500 QTRAP LC/MS/MS system (AB Sciex) with a 1200 series HPLC system (Agilent Technologies) including a degasser, an autosampler, and a binary pump. Liquid chromatography separation was performed on an Agilent SB-Aq column (4.6×50 mm, 5 μm) (Agilent Technologies) with mobile phase A (0.1% formic acid in water) and mobile phase B (0.1% formic acid in acetonitrile). The flow rate was 0.3 mL/min. The linear gradient was as follows: 0-3 min, 100% mobile phase A; 10-15 min, 2% mobile phase A; 15.5-21 min, 100% mobile phase A. The autosampler was set at 5° C. The injection volume was 15 μL. Mass spectra were acquired with both positive electrospray ionization at the ion spray voltage of 5500 V and negative electrospray ionization at the ion spray voltage of −4500 V. The source temperature was 450° C. The curtain gas, ion source gas 1, and ion source gas 2 were 33, 50, and 65, respectively. Multiple reaction monitoring was used to quantify the metabolites. Power analysis was not used to determine the number of replicates. Error bars represent the standard error of the mean of three biological replicates. The statistical significance of the accumulation was determined using a two sample Welch's t test (one-tailed test, assuming unequal variance) relative to the negative controls. All compounds evaluated in the biological assays were >95% pure.
MBN assay. Assays measuring permeabilization by polymyxin B nonapeptide (PMBN) were performed as above, with the addition of 8 μg/mL PMBN immediately before the compound of interest was added.

P. aeruginosa PAΔ6 [3] = experiment: MIC, efflux pump knockout strain PAΔ6; assay type: cell-based, Pseudomonas aeruginosa
Method: as §1

P. aeruginosa PAΔ6 [4] = experiment: LC-MS/MS whole-cell accumulation assay, PAΔ6; assay type: cell-based, Pseudomonas aeruginosa; details: FIG. 1c
Method: as §2, §3

P. aeruginosa PAO1 [5] = experiment: NPN outer membrane permeability assay; assay type: cell-based, Pseudomonas aeruginosa; details: treatment for ten minutes
Excerpt: Further, the fluorescent probe N-phenylnapthylamine (NPN) was used to assess outer membrane permeability changes upon treatment with FA, gentamicin, and FA prodrug. NPN is membrane impermeable and is only weakly fluorescent in aqueous solutions. Upon entry to the cell and interacting with phospholipids, significant fluorescence is observed. […] This residual membrane depolarizing antibacterial activity can be observed in the FA polyamine (FIG. 4a) and the diacylated compound (Table 9).

[6] = WT P. aeruginosa PAO1, MH broth (Table 1), read-out: PAO1 MIC
[7] = PA14, MH broth (Table 4), read-out: PA14 MIC
[8] = PA1280, MH broth (Table 4), read-out: PA1280 MIC

Row | Compound | WT EC MIC (WT EC) [mg/L] | PA efflux KO MIC (PA efflux KO) [mg/L] | tolC EC MIC (tolC EC) [mg/L] | WT PA MIC (WT PA) [mg/L] | PAO1 MIC (P. aeruginosa PAO1 [1]; MH broth (Table 4)) [mg/L] | MIC (P. aeruginosa PAO1 [1]; [6]) [mg/L] | MIC (P. aeruginosa PA14; [7]) [mg/L] | MIC (P. aeruginosa PA1280; [8]) [mg/L] | other results
1 | Cc1c(N2CC[C@@H]([C@H](C)N)C2)c(F)cc2c(CN)cc(=O)n(C3CC3)c12 [Compound 10] | 1 | 0.5 | 0.06 | 2 |  |  |  |  | 
2 | Cc1c(N2CC[C@@H]([C@H](C)N)C2)c(F)cc2c(CO)cc(=O)n(C3CC3)c12 [Compound 11] | 16 | 4 | 0.25 | 16 |  |  |  |  | 
3 | CC(=O)O[C@H]1C[C@@]2(C)[C@@H](C[C@@H](OC(C)=O)[C@H]3[C@@]4(C)CC[C@@H](OC(C)=O)[C@@H](C)[C@@H]4CC[C@@]32C)/C1=C(\CCC=C(C)C)C(=O)O [FA diacetate] |  |  |  |  |  |  |  |  | MIC (E. coli MG1655): > 512 mg/L; MIC (S. aureus ATCC 29213): 64 mg/L
4 | CC(=O)O[C@H]1C[C@@]2(C)[C@@H](C[C@@H](OC(C)=O)[C@H]3[C@@]4(C)CC[C@@H](OC(C)=O)[C@@H](C)[C@@H]4CC[C@@]32C)/C1=C(\CCC=C(C)C)C(=O)O/N=C(\N)CNCCCNCCCNCCCN [FA prodrug-diacetate] |  |  |  |  |  |  |  |  | MIC (P. aeruginosa PAO1 [1]; PAO1, Table 9, read-out: MIC P. aeruginosa PAO1): 32 mg/L (≈ 38 µM); MIC (E. coli MG1655): 16 mg/L (≈ 19 µM); MIC (S. aureus ATCC 29213): 16 mg/L (≈ 19 µM)
5 | CC(=O)NC[C@H]1CN(c2ccc(N3CCOCC3)c(F)c2)C(=O)O1 [Linezolid] |  |  |  |  | >512 | > 512 | > 512 | > 512 | 
6 | C[C@@H](O)[C@H]1C(=O)N2C(C(=O)O)=C(S[C@@H]3CN[C@H](C(=O)N(C)C)C3)[C@H](C)[C@H]12 [Meropenem] |  |  |  |  | 0.25 | 0.25 (≈ 0.652 µM) | 0.5 (≈ 1.3 µM) | 0.5 (≈ 1.3 µM) | accumulation in PAO1 (in words) (P. aeruginosa PAO1 [2]; FIG. 1a / FIG. 5): minimal accumulation
7 | CO[C@@H]1[C@@H](OC(N)=O)[C@@H](O)[C@H](Oc2ccc3c(O)c(NC(=O)c4ccc(O)c(CC=C(C)C)c4)c(=O)oc3c2C)OC1(C)C [Novobiocin] |  |  |  |  | >512 | > 512 | > 512 | > 512 | PAO1 + PMBN MIC (P. aeruginosa PAO1 [1]; co-treatment of 8 μg/mL of PMBN, MH broth): 1 mg/L; change of accumulation upon membrane permeabilization (P. aeruginosa PAO1 [2]; treatment with PMBN, FIG. 1b): significant increase in accumulation
8 | CN(C)[C@@H]1C(=O)C(C(N)=O)=C(O)[C@@]2(O)C(=O)C3=C(O)c4c(O)cccc4[C@@](C)(O)[C@H]3C[C@@H]12 [Tetracycline] | 1 | 0.25 | 0.25 | 16 | 16 |  |  |  | PAO1 MIC (P. aeruginosa PAO1 [1]; WT P. aeruginosa PAO1, MH broth (Table 1)): 16 mg/L; WT MIC (P. aeruginosa PAO1 [1]; WT P. aeruginosa PAO1, MH or LB broth (Table 7)): 16 mg/L; PA14 MIC (P. aeruginosa PA14; MH broth (Table 4)): 8 mg/L; WT Accum (P. aeruginosa PAO1 [2]; WT PAO1, ± s.e.m. (Table 7)): 452 ± 5 nmol/10^12 CFUs; PA1280 MIC (P. aeruginosa PA1280; MH broth (Table 4)): 32 mg/L; PAΔ6 MIC (P. aeruginosa PAΔ6 [3]; MH or LB broth (Table 7)): 0.25 mg/L; Fold change (MIC) (P. aeruginosa PAΔ6 [3]; WT MIC / PAΔ6 MIC (Table 7)): 64
9 | CN(C)c1cc(NC(=O)CNC(C)(C)C)c(O)c2c1C[C@H]1C[C@H]3[C@H](N(C)C)C(O)=C(C(N)=O)C(=O)[C@@]3(O)C(O)=C1C2=O [Tigecycline] | 0.5 | 0.125 | 0.125 | 1 | 1 | 1 (≈ 1.71 µM) | 2 (≈ 3.41 µM) | 16 (≈ 27.3 µM) | accumulation relative to tetracycline (P. aeruginosa PAO1 [2]; FIG. 1a): accumulates to a higher extent than tetracycline
10 | CN[C@H](CC(C)C)C(=O)N[C@H]1C(=O)N[C@@H](CC(N)=O)C(=O)N[C@H]2C(=O)N[C@H]3C(=O)N[C@H](C(=O)N[C@H](C(=O)O)c4cc(O)cc(O)c4-c4cc3ccc4O)[C@H](O)c3ccc(c(Cl)c3)Oc3cc2cc(c3O[C@@H]2O[C@H](CO)[C@@H](O)[C@H](O)[C@H]2O[C@H]2C[C@](C)(N)[C@H](O)[C@H](C)O2)Oc2ccc(cc2Cl)[C@H]1O [Vancomycin] |  |  |  |  | >512 |  |  |  | MIC (P. aeruginosa PAO1 [1]; PAO1, read-out: PAO1 MIC): > 512 mg/L; MIC (P. aeruginosa PAO1 [1]; PAO1, read-out: WT MIC): > 512 mg/L; MIC (P. aeruginosa PA14; PA14, read-out: PA14 MIC): > 512 mg/L; MIC (P. aeruginosa PA1280; PA1280, read-out: PA1280 MIC): > 512 mg/L; Fold change (P. aeruginosa PAΔ6 [3]; MIC ratio WT PAO1 / PAΔ6 (Table 2)): 1; PAΔ6 MIC (P. aeruginosa PAΔ6 [3]; efflux pump KO strain, MH or LB broth (Table 2)): >512 mg/L; change of accumulation in efflux pump knockout PAΔ6 versus WT PAO1 (P. aeruginosa PAΔ6 [4]): no change in accumulation
11 | Gentamicin |  |  |  |  |  |  |  |  | Fold change (MIC) (P. aeruginosa PAO1 [1]; 5 mM MgCl2/CAMH versus CAMH (Table 10)): 32X; MIC P. aeruginosa PAO1, CAMH (P. aeruginosa PAO1 [1]; CAMH (Table 10)): 0.25 mg/L; shift in MIC on co-treatment with 5 mM MgCl2 (P. aeruginosa PAO1 [1]; P. aeruginosa PAO1): 32 -fold; MIC P. aeruginosa PAO1, 5 mM MgCl2/CAMH (P. aeruginosa PAO1 [1]; co-treatment 5 mM MgCl2 in CAMH (Table 10)): 8; NPN fluorescence (outer membrane permeability) (P. aeruginosa PAO1 [5]): dose-dependent increase
